From patent US20260108496A1, “METHODS FOR REPROGRAMING EXHAUSTED T CELLS AND BOOSTING IMMUNE CHECKPOINT BLOCKADE THERAPY FOR CANCER” (Ohio State Innovation Foundation, priority 2022, published 2026)

What was measured:
[1] = system: P14 CD8 T cells; assay: in-vitro co-culture of P14 CD8 T cells with CT2A-gp33 tumor cells (Example 1); type: cell-based, mouse
From the text: To study their epigenetic (re)programming, we developed a novel in-vitro model of CD8 T cell exhaustion. First, we optimized conditions for in-vitro co-culture of gp33-expressing murine brain tumor cells (CT2A-gp33) and TCR transgenic gp33-specific CD8 T cells (P14 cells). We were able to enforce differentiation of anti-tumor CD8 T cells under their persistent TCR stimulation by repeated exposure to the tumor antigen and tumor-derived factors, such as TGFβ1. […] However, with prolonged exposure to the tumor antigen, the effector CD8 T cells progressively lose cytokine production and tumor killing activity (FIGS. 8A, 8B, and 8C).
To assess the impact of TGFβ1 signaling on the progression of CD8 T cells toward dysfunction, we treated co-cultures with TGFβ1 or RepSox (also known as E-616452) (2-(3-(6-Methylpyridine-2-yl)-1H-pyrazol-4-yl)-1,5-naphthyridine) as shown in the formula: […]
RepSox is a potent selective inhibitor of the TGFβ type 1 receptor (ALK5)—for 11 days after effector differentiation was complete (day 6).
We also examined the impact of BMP-2/4 signaling on RepSox-treated P14 CD8 T cells. […] Taken together, our findings indicate that TGFβ1-signaling not only accelerates the development of T cell dysfunction, but also maintains silencing of lymphoid homing markers on CD8 T cells. Importantly, our findings support the feasibility of using this novel in-vitro model as a tractable tool that can guide our in-vivo work by providing first-line mechanistic studies.

[2] = system: Dysf. CD8+ T cells; assay: reprogramming treatment of Dysf. (chronic TCR plus TGFβ1) human CD8+ T cells; type: cell-based
Method: On day 7, viable CD8+ T cells were FACS-purified using the Sony MA900 cell sorter. Purified CD8+ T cells were then continuously stimulated in plates coated with anti-CD3 only (5 ug/ml). Media was replenished every 2-3 days, and cells were incubated at 37 C and 5% CO2 throughout the duration of the experiment. Human TGFβ1 (5 ng/ml, Peprotech) was added to the media starting on day 7. Treatment with RepSox (25 μM) and SB4 (10 μM) (MedChemExpress LLC) or vehicle control (DMSO, ThermoFisher) were added to the media starting on day 14 or 21. Vitamin C (100 μM, MedChemExpress LLC) was added to the media starting on day 21. For the acute TCR stimulation condition, anti-CD3 was no longer added to the media starting on day 7. For recovery experiments in FIG. 16 and FIGS. 22 and 26, CD8+ T cells were rested from TCR stimulation and TGFβ1 starting on day 28 for 7-14 days in T cell media containing recombinant human IL-15 only (10 ng/ml).
(§1) On days 7, 14, 21, and 28 (and day 35 and 42 for recovery experiments), human CBMCs were stimulated with PMA/Ionomycin (Cell Stimulation Cocktail plus protein transport inhibitors, eBioscience) for 3 hours at 37° C., 5% CO2. Incubation was followed immediately by antibody intracellular staining for flow cytometry.
Human CBMCs from ex vivo stimulation experiments (acute or chronic TCR, and chronic TCR+TGFβ1) were labeled with 5(6)-Carboxyfluorescein diacetate N-succinimidyl ester (CFSE) (1 μM, Sigma) by staining in PBS for 7 minutes at room temperature, followed by quenching with 20% FBS. Proliferation was tracked on days 35 and 42 by assessing CFSE fluorescence via flow cytometry. Each peak of CFSE fluorescence signal represents one cell division cycle.

[3] = system: human CD8+ T cells; assay: RNA-sequencing of human CD8+ T cells; type: cell-based
Method: RNA was isolated using PicoPure™ RNA Isolation Kit (Applied Biosystems) from frozen cell pellets of human CD8+ T cells that were FACS-purified from days 0 (naïve), 7, and 28. Following the kit protocol. Partek Flow was used for RNA-seq analysis. In brief, pre-alignment QC/QA analysis was performed on the FASTQ files, followed by read alignment on human whole genome hg38 using STAR. The aligned reads were quantified to the hg38 RefSeq Transcripts 98 using the Quantify to annotation model on Partek and gene counts were filtered (exclude features where maximum <50.0). Filtered gene counts were normalized using median ratio for DESeq2 analysis to measure differential gene expression among different populations of CD8+ T cells. Differentially expressed genes (DEGs) were identified for genes showing fold change ≥2 and p-value 0.05.

[4] = system: human CD8+ T cells; assay: whole-genome bisulfite sequencing of human CD8+ T cells; type: cell-based
Method: Human CD8+ T cells were sorted on days 0 (naïve), 7, and 28, and genomic DNA was extracted and bisulfite-treated to convert unmethylated cytosine to uracil residues using the EZ DNA Methylation-Direct Kit (Zymo). DNA libraries were prepared using Swift Accel-NGS® D Methyl-Seq DNA Library Kit according to the manufacturer's protocol. The libraries were purified by the AMPureXP Beads followed by QC using Qubit method, and the purified DNA was captured on an Illumina flow cell for cluster generation. Libraries were sequenced on the NovaSeq-S2 platform following the manufacturer's protocols. Sequencing data were aligned to the Hg38 genome using BSMAP. Adapter were trimmed from FASTQ sequences (trimglore) and mapped to the hg38 genome using the BSMAP v. 2.74 software. CpGs were extracted by the methratio.py in the BSMAP package. Differential analysis of CpG methylation among the datasets was determined with a Bayesian hierarchical model to detect regional methylation differences with at least three CpG site. Differentially methylated regions (DMRs) were identified using Bioconductor package DSS and custom R scripts with a threshold of 30% change in methylation ratio and P-value <0.01 with at least 10 reads per CpG site as a cutoff.

[5] = system: B16-F10-LCMV-GP tumor; type: in vivo, C57BL/6 mice; conditions: therapy initiated after tumor development, i.p. every 2 days, through day 17
[6] = system: LCMV-specific CD8+ T cells; type: in vivo, C57BL/6 mice; conditions: treatment followed by anti-PD-L1
[7] = system: human CD8+ T cells; assay: BMP4 agonist treatment of human CD8+ T cells under chronic strong TCR stimulation; type: cell-based
From the text: To determine whether activating the SMAD1/5-dependent pathway attenuates a progression of chronically stimulated T cells to dysfunction, we augmented SMAD1/5-signaling using SB4 (2-[[(4-Bromophenyl)methyl]thio]benzoxazole), as shown in the formula: […]
SB4 is a selective small molecule BMP4 agonist (BMP4a) that stabilizes SMAD1/5 phosphorylation—in human CD8+ T cells under chronic strong TCR stimulation (FIG. 15a). […] CD39, CD103, and CD101 (FIG. 15e-i). Importantly. […] Taken together, these findings reveal a novel role for BMP4 signals in reversing exhaustion features and enhancing the survival of chronically stimulated CD8+ T cells.
For “Weak TCR” stimulation, 30 ng/ml of purified monoclonal anti-human CD3 (clone: OKT3; BioLegend) was continuously added onto the seeded CBMCs to provide TCR stimulation plus natural costimulation via CD80/CD86 on Fc-expressing CBMCs that survive in the first few days. For “Strong TCR” stimulation setting, flat-bottom plates were coated with purified monoclonal anti-human CD3 (5 ug/ml) and anti-human CD28 (1 ug/ml) (clone: CD28.2; BioLegend) at 4° C. overnight, then CMBCs were isolated and seeded in complete T cell medium as described above on day 0. On day 7, viable CD8+ T cells were FACS-purified using the Sony MA900 cell sorter. Purified CD8+ T cells were then continuously stimulated in plates coated with anti-CD3 only (5 ug/ml). Media was replenished every 2-3 days, and cells were incubated at 37 C and 5% CO2 throughout the duration of the experiment. Human TGFβ1 (5 ng/ml, Peprotech) was added to the media starting on day 7. […] Vitamin C (100 μM, MedChemExpress LLC) was added to the media starting on day 21. For the acute TCR stimulation condition, anti-CD3 was no longer added to the media starting on day 7. For recovery experiments in FIG. 16 and FIGS. 22 and 26, CD8+ T cells were rested from TCR stimulation and TGFβ1 starting on day 28 for 7-14 days in T cell media containing recombinant human IL-15 only (10 ng/ml).
as §1

[8] = system: human CD8+ T cells; assay: chronic TCR stimulation of human CBMCs in the presence of TGFβ1; type: cell-based
Method: For “Weak TCR” stimulation, 30 ng/ml of purified monoclonal anti-human CD3 (clone: OKT3; BioLegend) was continuously added onto the seeded CBMCs to provide TCR stimulation plus natural costimulation via CD80/CD86 on Fc-expressing CBMCs that survive in the first few days. For “Strong TCR” stimulation setting, flat-bottom plates were coated with purified monoclonal anti-human CD3 (5 ug/ml) and anti-human CD28 (1 ug/ml) (clone: CD28.2; BioLegend) at 4° C. overnight, then CMBCs were isolated and seeded in complete T cell medium as described above on day 0. On day 7, viable CD8+ T cells were FACS-purified using the Sony MA900 cell sorter. Purified CD8+ T cells were then continuously stimulated in plates coated with anti-CD3 only (5 ug/ml). Media was replenished every 2-3 days, and cells were incubated at 37 C and 5% CO2 throughout the duration of the experiment. Human TGFβ1 (5 ng/ml, Peprotech) was added to the media starting on day 7. Treatment with RepSox (25 μM) and SB4 (10 μM) (MedChemExpress LLC) or vehicle control (DMSO, ThermoFisher) were added to the media starting on day 14 or 21. Vitamin C (100 μM, MedChemExpress LLC) was added to the media starting on day 21. For the acute TCR stimulation condition, anti-CD3 was no longer added to the media starting on day 7. […]

[9] = system: adult CD8+ T cells; assay: chronic TCR plus TGFβ1 stimulation of adult CD8+ T cells from healthy blood donors; type: cell-based, human
Method: Isolated adult PBMCs were stained on day 0 for cell sorting of naïve CD8+ T cells (viable CD3+ CD8+ CCR7+ CD45RO−) and viable CD3− PBMCs using the Sony MA900 sorter. The cells were seeded into 96-well U-bottom plate (˜5,000 naïve T cells+45,000 CD3− cells per well) on day 0 with 30 ng/ml of purified anti-human CD3, in complete T cell medium as described above. On day 4, the wells were transferred to a 96-well flat-bottom plate coated with anti-human CD3 and CD28 antibodies as described above, and stimulation was continued for an additional three days. On day 7, the cells were returned to culture with continuous stimulation using soluble anti-CD3 (30 ng/ml) or repeated plate-bound anti-CD3 stimulation through day 28. Media was replenished every 2-3 days. Treatments were added to the media as described above for CBMCs experiments.

[10] = monotherapy, in the absence of TGFβ R1 blocker
[11] = sorted most dysfunctional subset, added to RepSox
[12] = adult naïve CD8+ T cells, post-effector exposure

Cc1cccc(-c2n[nH]cc2-c2ccc3ncccc3n2)n1 [RepSox, 2-(3-(6-Methylpyridine-2-yl)-1H-pyrazol-4-yl)-1,5-naphthyridine] was tested, and the “CD62L (L-selectin) expression” value ([1]; P14 CD8 T cells) was “restored”, the “levels of PD-1” value ([1]; P14 CD8 T cells) was “maintained high levels” and the tumor killing activity ([1]; persistently stimulated P14 cells, treatment from day 6) was “preserved”. The “effector function (expression of IFNγ, T-bet and Gzmb)” value ([1]; relative to Day 6-effector CD8 T cells) was “boosted the effector function”, the “effector molecules (IFNγ, TNFα, CD107a, T-bet)” value ([2]; RepSox alone, day 28) was “restored” and the “surface markers associated with terminal dysfunction (CD101, PD-1, LAG3)” value ([2]; RepSox alone, day 28) was “downregulated”. For the same compound, the effector cytokine production ([2]; sorted most dysfunctional subset (CD107a low CD11a low), RepSox 2 weeks) was “significantly recovered”, the “expression of effector function-related and memory-related genes” value ([3]; TGFBR1 blockade alone, Dysf. CD8+ T cells, day 28) was “restored substantial expression levels” and the “ACVR1 and ACVR2A expression” value ([3]; normalized RNA levels, chronic stimulation) was “increased expression”. The “DNA methylation patterns in Dysf. CD8+ T cells” value (from here on “DNA methylation patterns”) ([4]; RepSox alone, day 28) was “induced distinct methylation patterns”, the tumor control [5] was “modest tumor control” and the “dysfunctional CD8+ T cell responses during anti-PD-L1 treatment” value [6] was “did not improve”.

In the case of Brc1ccc(CSc2nc3ccccc3o2)cc1 [SB4, 2-[[(4-Bromophenyl)methyl]thio]benzoxazole], the “expression of exhaustion-associated molecules (PD-1, LAG3, CD39, CD103, CD101)” value ([7]; day 21) is reported as “reducing the expression”, the “numbers of persistently stimulated CD8+ T cells” value ([7]; day 21) is reported as “rescued significantly higher numbers” and the “proliferation activity (Ki67)” value ([7]; day 21) is reported as “without increasing”. The polyfunctionality ([7]; day 21, treatment day 7-21, after PMA/Ionomycin) was “significantly increased”, the “expression levels of terminal dysfunction molecules” value ([2]; in RepSox-treated Dysf. CD8+ T cells) was “further reducing” and the “effector function of Dysf. CD8+ T cells” value [2, 10] was “not sufficient to restore”. For the same compound, the “expression levels of dysfunction-related molecules (PD-1, LAG3, CD101, CD103)” value [2, 10] was “significantly reduced”, the effector cytokine production [2, 11] was “further enhanced” and the “expression of genes regulating T cell co-stimulation, chemotaxis and stemness (CD28, FOSB, FCGR3A, CXCL8, POU2F2)” value ([3]; Reprog.II versus Reprog.I) was “re-activated expression”. The “DNA methylation patterns” value ([4]; combined with RepSox) was “more pronounced”, the tumor control [5] was “modest tumor control” and the “dysfunctional CD8+ T cell responses during anti-PD-L1 treatment” value [6] was “did not improve”.

O=C1O[C@H]([C@@H](O)CO)C(O)=C1O [vitamin C] was tested, and the effector cytokine production [2, 11] was “further enhanced” and the “DNA methylation patterns” value ([4]; combined with RepSox) was “more pronounced”.

“TGFβ1: Human TGFβ1 cytokine (5 ng/ml, Peprotech)” was tested, and the “production of IFNγ and TNFα” value ([1]; P14 cells, persistent treatment for 11 days from day 6 of co-culture) was “accelerated the impairment”, the “expression of T-bet and Granzyme B” value ([1]; P14 cells, persistent treatment from day 6) was “repressed expression” and the “effector functions in chronically stimulated T cells” value ([8]; TGFβ1 started after effector differentiation (day 7-28)) was “significantly reduced”. For the same compound, the “survival of chronically stimulated CD8+ T cells” value ([8]; strong TCR stimulation) was “supported the survival”, the “expression of dysfunction-associated markers” value [9, 12] was “increased expression” and the “function of chronically stimulated adult CD8+ T cells” value [9, 12] was “induced functional impairment”. The polyfunctionality ([9]; adult polyclonal effector memory (CD45RO+ CCR7−) CD8+ T cells) was “did not impact” and the CD103 expression ([9]; adult polyclonal effector memory CD8+ T cells) was “significant upregulation”.
